Test results: US20250084074A1, “SUBSTITUTED HETEROCYCLES AS HSET INHIBITORS” (MERCK PATENT GMBH, priority 2022, published 2025)
Structures can show the parent of a compound that is named as a salt.

molecular target: HSET full length protein (Homo sapiens (Human), UniProt Q9BW19); test: HSET ADP-Glo Assay S - 3 μM ATP; format: biochemical; details: 5 nM HSET, 70 μg/mL microtubule, 80 min at rt, read-out: COMBINED HSET ADP GLO IC50
Experimental: Example 281: Testing compounds of the present invention for inhibitory activities against HSET—HSET ADP-Glo Assay S—3 μM ATP
Reagents: (+4° C. Storage) • Paclitaxel Prod.No.TXD.01 2 mM in DMSO (from Universal Biologicals Cambridge). • Tubulin Protein (Pre-formed Microtubules): Bovine Brain Prod.No.MT001-XL Lot.025 10 mg/mL (from Universal Biologicals Cambridge).
Reagents: (−80° C. Storage) • MT001-XL—Tubulin Protein (Pre-formed Microtubules): Bovine Brain—reconstituted in buffer—15 mM PIPES pH7, 1 mM MgCl2, 20 μM paclitaxel (aliquots at 10 mg/mL) from Universal Biologicals Cambridge. • HSET full length protein—Current batch is FL HSET Prep1 (SEQ-000096_002-01_01) • Buffer is 20 mM Hepes pH 7.5, 200 mM NaCl, 2 mM TCEP, 5% glycerol (5 μL aliquots at 10.2 μM)
Reagents: (−20° C. Storage) • ADP-Glo Kinase Assay kit (Promega Prod.No.V9102) 10,000 assay points • ADP-Glo reagent (50 mL), Kinase Detection Reagent (100 mL), and Ultrapure ATP (10 mM) aliquoted
Buffer Stocks (filtered and stored at rt for up to 1 month) • HEPES acid, 4-(2-Hydroxyethyl)piperazine-1-ethanesulfonic acid MW:238, 238.3 mg/mL=1 M • 7149 mg/30 mL=1M (pH to 6.8 with 5 M NaOH) • PIPES, 1,4-Piperazinediethanesulfonic acid MW: 302.4, 30.24 mg/mL=100 mM; 907.2 mg/30 mL=100 mM (pH to 7 with 5 M NaOH, white cloudy suspension until the pH changes) • EGTA, Ethylene glycol-bis(2-aminoethylether)-N,N,N′,N′-tetraacetic acid MW: 380.35, 38.035 mg/mL=100 mM • 1901.75 mg/50 mL=100 mM (pH to ˜7 with 5 M NaOH)—takes a long time to get into solution and for pH to stabilize • Triton-X-100, MW: 625, 62.5 mg/mL=100 mM (6.25% w/v) (viscous, pipette Triton X-100 with a Gilson using a trimmed pipette tip)
ECHO Protocol • Create an ECHO intermediate plate by adding 24.5 μL DMSO to columns 1 & 2, and 40 μL DMSO to columns 23 & 24 of an ECHO 384PP plate • Add 100 nL of compound/DMSO per well in 384-well Proxi-Plate Plus (white) —Perkin Elmer Cat #6008289 using ECHO dose response protocol 100 nL normal to proxi_8pt_200 uM.
Assay buffer (Keep on ice): HEPES pH 6.8, MgCl2, EGTA, Triton X-100, DTT, HPLC H2O Microtubule Working Solution (3.2): • 1 ml PM buffer: PIPES pH 7.0, MgCl2, HPLC H2O, Paclitaxel, mix well, store at rt • Then add 26.4 μL of 10 mg/ml microtubules to 724 μL of the above PM buffer to make 750 μL of microtubule working solution @350 μg/mL microtubules (store at rt)
Stock HSET enzyme solution (3.1)—keep on ice • Add 1.33 μL 10.2 μM HSET Prepi (SEQ-000096_002-01_01) to 1358 μL assay buffer to make a 10 nM stock for a 5 nM final assay concentration (1/1020 dilution).
HSET/Microtubule working solution (3.3) • Mix solutions 3.1 and 3.2 in the ratio of 2.5:1 (1214.3 μL 3.1+485.7 μL 3.2) keep at rt for 15 min • 3.2 is diluted 3.5-fold, 3.1 is diluted 1.4-fold BLANK solution is 357 μL 2XAB+143 μL microtubule working solution 3.2. (Same proportions as HSET/Microtubule working solution (3.3))
ATP Working solution is 1 μL 10 mM UltraPure ATP (Promega kit)+999 μL ddH20 gives 10 μM ATP for a 3 μM final assay concentration, stored on ice.
Assay procedure in PROXIPLATE 384 PLUS WHITE (Perkin Elmer) plates (Remove 2.4 mL ADP Glo and 4.5 mL Kinase detection reagent from freezer to warm up to rt) • Add 3.5 μL BLANK solution to assay plate (column 12) • Add 3.5 μL HSET/Microtubule solution (3.3) (columns 1-11 & 13-24) • Centrifuge at 1000 rpm for 1 min • (pre-incubate enzyme and compound for 10 min)
Add 1.5 μL of 10 μM ATP to start reaction gives a final [HSET] of 5 nM, [ATP] of 3 μM and [microtubule] of 70 μg/mL, centrifuge at 1000 rpm for 1 min and incubated at rt for 80 min.
After the 80-minute incubation, stop reaction by adding 5 μL ADP-Glo reagent to all wells. Centrifuge for 1 min at 1000 rpm, leave for 40 min at rt.
In the dark/away from direct light, add 10 μL Kinase Detection Reagent (KDR) to all wells, Seal plate with a Topseal (Perkin Elmer Cat #6050185) and centrifuge as above, leave for 40 min at rt covered in foil. […]

Chain of HSET full length protein (Q9BW19 whole entry): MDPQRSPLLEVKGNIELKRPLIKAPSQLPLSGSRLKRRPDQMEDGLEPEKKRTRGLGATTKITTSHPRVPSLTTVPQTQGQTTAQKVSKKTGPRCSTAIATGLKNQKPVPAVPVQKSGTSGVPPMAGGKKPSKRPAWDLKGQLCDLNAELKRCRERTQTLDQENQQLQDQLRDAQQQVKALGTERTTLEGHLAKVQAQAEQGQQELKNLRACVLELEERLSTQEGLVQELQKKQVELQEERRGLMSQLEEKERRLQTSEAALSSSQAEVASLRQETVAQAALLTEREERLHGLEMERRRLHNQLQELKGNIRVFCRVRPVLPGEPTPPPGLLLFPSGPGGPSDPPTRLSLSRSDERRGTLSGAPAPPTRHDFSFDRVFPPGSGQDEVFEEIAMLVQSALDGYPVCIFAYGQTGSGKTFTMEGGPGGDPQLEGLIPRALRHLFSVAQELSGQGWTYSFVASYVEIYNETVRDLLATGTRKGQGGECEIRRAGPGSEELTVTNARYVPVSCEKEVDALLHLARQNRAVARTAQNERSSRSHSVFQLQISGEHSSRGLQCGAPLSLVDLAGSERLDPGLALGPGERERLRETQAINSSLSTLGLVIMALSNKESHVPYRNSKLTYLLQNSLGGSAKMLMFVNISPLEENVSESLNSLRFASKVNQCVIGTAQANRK

SMILES	IC50 [µM]
COC(=O)c1sc(NC(=O)CCNc2nccc3ccc(-c4noc(C)n4)cc23)nc1C [Example 46, Methyl 4-methyl-2-[3-[[7-(5-methyl-1,2,4-oxadiazol-3-yl)-1-isoquinolyl]amino]propanoylamino]thiazole-5-carboxylate]	0.037
Cc1nc(-c2ccc3ncnc(NCCC(=O)Nc4nc(C)c(C(C)(C)C)s4)c3c2)no1 [Example 47, N-(5-tert-butyl-4-methyl-thiazol-2-yl)-3-[[6-(5-methyl-1,2,4-oxadiazol-3-yl)quinazolin-4-yl]amino]propanamide formate]	0.147
Cc1nc(-c2ccc3ncnc(N[C@H]4C[C@@H](C(=O)Nc5nc(C)c(C(=O)OC(C)(C)C)s5)C4)c3c2)no1 [Example 48, tert-Butyl 4-methyl-2-((1 s,3s)-3-((6-(5-methyl-1,2,4-oxadiazol-3-yl)quinazolin-4-yl)amino)cyclobutane-1-carboxamido)thiazole-5-carboxylate]	0.068
Cc1nc(-c2ccc3ncnc(N[C@H]4C[C@@H](C(=O)N(C)c5nc(C)c(C(=O)OC(C)(C)C)s5)C4)c3c2)no1 [Example 49, tert-Butyl 4-methyl-2-((1 s,3s)-N-methyl-3-((6-(5-methyl-1,2,4-oxadiazol-3-yl)quinazolin-4-yl)amino)cyclobutane-1-carboxamido)thiazole-5-carboxylate formate]	0.059
Cc1nc(-c2ccc3ccnc(NCCC(=O)Nc4nc(C)c(C5(C(F)(F)F)CC5)s4)c3c2)no1 [Example 52]	0.152
CCCOC(=O)c1sc(NC(=O)CCNc2nccc3ccc(-c4noc(C)n4)cc23)nc1C [Example 54, Propyl 4-methyl-2-(3-((7-(5-methyl-1,2,4-oxadiazol-3-yl)isoquinolin-1-yl)amino)propanamido)thiazole-5-carboxylate]	0.003
Cc1nc(-c2ccc3ccnc(NCCC(=O)Nc4ncc(C#N)s4)c3c2)no1 [Example 55]	1.13
Cc1nc(-c2ccc3ccnc(NCCC(=O)Nc4cc(C(F)(F)F)n(C)n4)c3c2)no1 [Example 56, 3-((7-(5-methyl-1,2,4-oxadiazol-3-yl)isoquinolin-1-yl)amino)-N-(1-methyl-5-(trifluoromethyl)-1 H-pyrazol-3-yl)propenamide]	1.26
CCCCCc1cc(NC(=O)CCNc2nccc3ccc(-c4noc(C)n4)cc23)nn1C [Example 57, 3-((7-(5-methyl-1,2,4-oxadiazol-3-yl)isoquinolin-1-yl)amino)-N-(1-methyl-5-pentyl-1 H-pyrazol-3-yl)propanamide]	0.166
Cc1nnn(-c2cccc(C(=O)NCCC(=O)Nc3nc(C)c(C(C)(C)C)s3)c2)n1 [Example 59, N-(3-((5-(tert-butyl)-4-methylthiazol-2-yl)amino)-3-oxopropyl)-3-(5-methyl-2H-tetrazol-2-yl)benzamide]	0.278
CNCCC[C@@H](CC(=O)Nc1nc(C)c(C(C)(C)C)s1)NC(=O)c1cccc(-n2nnc(C)n2)c1 [Example 60, (S)-N-(1-((5-(tert-butyl)-4-methylthiazol-2-yl)amino)-6-(methylamino)-1-oxohexan-3-yl)-3-(5-methyl-2H-tetrazol-2-yl)benzamide]	0.054
CCOC(=O)c1cnc(NC(=O)CCNC(=O)c2cccc(-c3noc(C)n3)c2)s1 [Example 61, Ethyl 2-(3-(3-(5-methyl-1,2,4-oxadiazol-3-yl)benzamido)propanamido)-thiazole-5-carboxylate]	0.819
COC(=O)c1sc(NC(=O)CCNC(=O)c2cccc(-c3noc(C)n3)c2)nc1C [Example 62, Methyl 4-methyl-2-(3-(3-(5-methyl-1,2,4-oxadiazol-3-yl)benzamido)propanamido)thiazole-5-carboxylate]	1.21
CCCOC(=O)c1sc(NC(=O)CCNC(=O)c2cccc(-c3noc(C)n3)c2)nc1C [Example 63, Propyl 4-methyl-2-(3-(3-(5-methyl-1,2,4-oxadiazol-3-yl)benzamido)propanamido)thiazole-5-carboxylate]	0.011

Next, values leading:

IC50 [µM]	SMILES
0.348	CCCCc1sc(NC(=O)CCNC(=O)c2cccc(-c3noc(C)n3)c2)nc1C [Example 64, N-(3-((5-butyl-4-methylthiazol-2-yl)amino)-3-oxopropyl)-3-(5-methyl-1,2,4-oxadiazol-3-yl)benzamide]
4.1	CCOC(=O)c1sc(NC(=O)CC(C)(C)NC(=O)c2cccc(-c3noc(C)n3)c2)nc1C [Example 65, Ethyl 4-methyl-2-(3-methyl-3-(3-(5-methyl-1,2,4-oxadiazol-3-yl)benzamido)butanamido)thiazole-5-carboxylate]
0.04	Cc1nc(-c2cccc(C(=O)NCCC(=O)Nc3nc(C)c(C(=O)OC(C)C)s3)c2)no1 [Example 66, Isopropyl 4-methyl-2-(3-(3-(5-methyl-1,2,4-oxadiazol-3-yl)benzamido)propanamido)thiazole-5-carboxylate]
0.419	COCCOC(=O)c1sc(NC(=O)CCNC(=O)c2cccc(-c3noc(C)n3)c2)nc1C [Example 67, 2-Methoxyethyl 4-methyl-2-(3-(3-(5-methyl-1,2,4-oxadiazol-3-yl)benzamido)propanamido)thiazole-5-carboxylate]
0.033	Cc1nc(-c2cccc(C(=O)NCCC(=O)Nc3nc(C)c(C(=O)OCC(C)C)s3)c2)no1 [Example 68, Isobutyl 4-methyl-2-(3-(3-(5-methyl-1,2,4-oxadiazol-3-yl)benzamido)propanamido)thiazole-5-carboxylate]
0.05	COCCCCOC(=O)c1sc(NC(=O)CCNC(=O)c2cccc(-c3noc(C)n3)c2)nc1C [Example 69, 4-Methoxybutyl 4-methyl-2-(3-(3-(5-methyl-1,2,4-oxadiazol-3-yl)benzamido)propanamido)thiazole-5-carboxylate]
0.011	CCCOC(=O)c1sc(C(=O)NCCNc2nccc3ccc(-c4noc(C)n4)cc23)nc1C [Example 70, Propyl 4-methyl-2-((2-((7-(5-methyl-1,2,4-oxadiazol-3-yl)isoquinolin-1-yl)amino)ethyl)carbamoyl)thiazole-5-carboxylate]
10.9	CCOC(=O)c1cc(C(=O)NCCNc2nccc3ccc(-c4noc(C)n4)cc23)nn1C [Example 71, Ethyl 1-methyl-3-((2-((7-(5-methyl-1,2,4-oxadiazol-3-yl)isoquinolin-1-yl)amino)ethyl)carbamoyl)-1 H-pyrazole-5-carboxylate]
4.31	CCCOC(=O)c1cc(C(=O)NCCNc2nccc3ccc(-c4noc(C)n4)cc23)nn1C [Example 72, Propyl 1-methyl-3-((2-((7-(5-methyl-1,2,4-oxadiazol-3-yl)isoquinolin-1-yl)amino)ethyl)carbamoyl)-1 H-pyrazole-5-carboxylate]
